Measurements published in publication PMC8330742, “New benzothieno[2,3-c]pyridines as non-steroidal CYP17 inhibitors: design, synthesis, anticancer screening, apoptosis induction, and in silico ADME profile studies” (Journal of Enzyme Inhibition and Medicinal Chemistry, 2021).

Experiments:
SK-MEL-2 = assay: NCI-60 SRB screen; type: cell-based, human; settings: Homo sapiens; single dose 10^−5 M; SK-MEL-2, Melanoma; read-out: Growth inhibition (%)
OVCAR-4 = assay: NCI-60 SRB screen; type: cell-based, human; settings: Homo sapiens; single dose 10^−5 M; OVCAR-4, Ovarian cancer; read-out: Growth inhibition (%)
786-0 = assay: NCI-60 SRB screen; type: cell-based; settings: Homo sapiens; single dose 10^−5 M; 786-0, Renal cancer; read-out: Growth inhibition (%)
NCI-H522 = assay: NCI-60 SRB screen; type: cell-based, human; settings: Homo sapiens; single dose 10^−5 M; NCI-H522, Non-small cell lung carcinoma; read-out: Growth inhibition (%)
HT-29 = assay: NCI-60 SRB screen; type: cell-based; settings: Homo sapiens; single dose 10^−5 M; HT-29, Colon cancer; read-out: Growth inhibition (%)
KM12 = assay: NCI-60 SRB screen; type: cell-based, human; settings: Homo sapiens; single dose 10^−5 M; KM12, Colon cancer; read-out: Growth inhibition (%)
MDA-MB-435 = assay: NCI-60 SRB screen; type: cell-based; settings: Homo sapiens, MDA-MB-435, read-out: Growth inhibition (%)
HCT-15 = assay: NCI-60 SRB screen; type: cell-based, human; settings: Homo sapiens; single dose 10^−5 M; HCT-15, Colon cancer; read-out: Growth inhibition (%)
M14 = assay: NCI-60 SRB screen; type: cell-based, human; settings: Homo sapiens; single dose 10^−5 M; M14, Melanoma; read-out: Growth inhibition (%)
SF-268 = assay: NCI-60 SRB screen; type: cell-based, human; settings: Homo sapiens; single dose 10^−5 M; SF-268, CNS cancer; read-out: Growth inhibition (%)
LOX IMVI = assay: NCI-60 SRB screen; type: cell-based, human; settings: Homo sapiens, single dose 10^−5 M, Melanoma, read-out: Growth inhibition (%)
MALME-3M = assay: NCI-60 SRB screen; type: cell-based, human; settings: Homo sapiens, single dose 10^−5 M, Melanoma, read-out: Growth inhibition (%)
CAKI-1 = assay: NCI-60 SRB screen; type: cell-based, human; settings: Homo sapiens; single dose 10^−5 M; CAKI-1, Renal cancer; read-out: Growth inhibition (%)
NCI/ADR-RES = assay: NCI-60 SRB screen; type: cell-based, human; settings: Homo sapiens, single dose 10^−5 M, Ovarian cancer, read-out: Growth inhibition (%)
UACC-62 = assay: NCI-60 SRB screen; type: cell-based, human; settings: Homo sapiens; single dose 10^−5 M; UACC-62, Melanoma; read-out: Growth inhibition (%)
NCI-H226 = assay: NCI-60 SRB screen; type: cell-based, human; settings: Homo sapiens; single dose 10^−5 M; NCI-H226, Non-small cell lung carcinoma; read-out: Growth inhibition (%)
HCC-2998 = assay: NCI-60 SRB screen; type: cell-based, human; settings: Homo sapiens; single dose 10^−5 M; HCC-2998, Colon cancer; read-out: Growth inhibition (%)
IGROV1 = assay: NCI-60 SRB screen; type: cell-based, human; settings: Homo sapiens, IGROV-1; single dose 10^−5 M; IGROV1, Ovarian cancer; read-out: Growth inhibition (%)
HCT-116 = assay: NCI-60 SRB screen; type: cell-based, human; settings: Homo sapiens; single dose 10^−5 M; HCT-116, Colon cancer; read-out: Growth inhibition (%)
TK-10 = assay: NCI-60 SRB screen; type: cell-based, human; settings: Homo sapiens; single dose 10^−5 M; TK-10, Renal cancer; read-out: Growth inhibition (%)
SR = assay: NCI-60 SRB screen; type: cell-based; settings: Homo sapiens, single dose 10^−5 M, Leukaemia, read-out: Growth inhibition (%)
UO-31 = assay: NCI-60 SRB screen; type: cell-based, human; settings: Homo sapiens; single dose 10^−5 M; UO-31, Renal cancer; read-out: Growth inhibition (%)
SK-OV-3 = assay: NCI-60 SRB screen; type: cell-based, human; settings: Homo sapiens; single dose 10^−5 M; SK-OV-3, Ovarian cancer; read-out: Growth inhibition (%)
SK-MEL-5 = assay: NCI-60 SRB screen; type: cell-based, human; settings: Homo sapiens; single dose 10^−5 M; SK-MEL-5, Melanoma; read-out: Growth inhibition (%)
OVCAR-8 = assay: NCI-60 SRB screen; type: cell-based, human; settings: Homo sapiens; single dose 10^−5 M; OVCAR-8, Ovarian cancer; read-out: Growth inhibition (%)
SN12C = assay: NCI-60 SRB screen; type: cell-based, human; settings: Homo sapiens, SN12C; single dose 10^−5 M; SN 12 C, Renal cancer; read-out: Growth inhibition (%)
HOP-62 = assay: NCI-60 SRB screen; type: cell-based, human; settings: Homo sapiens; single dose 10^−5 M; HOP-62, Non-small cell lung carcinoma; read-out: Growth inhibition (%)
HL-60(TB) = assay: NCI-60 SRB screen; type: cell-based, human; settings: Homo sapiens; single dose 10^−5 M; HL-60(TB), Leukaemia; read-out: Growth inhibition (%)
OVCAR-3 = assay: NCI-60 SRB screen; type: cell-based, human; settings: Homo sapiens; single dose 10^−5 M; OVCAR-3, Ovarian cancer; read-out: Growth inhibition (%)
ACHN = assay: NCI-60 SRB screen; type: cell-based; settings: Homo sapiens, single dose 10^−5 M, Renal cancer, read-out: Growth inhibition (%)
SK-MEL-28 = assay: NCI-60 SRB screen; type: cell-based; settings: Homo sapiens; single dose 10^−5 M; SK-MEL-28, Melanoma; read-out: Growth inhibition (%)
K-562 = assay: NCI-60 SRB screen; type: cell-based, human; settings: Homo sapiens, K562; single dose 10^−5 M; K-562, Leukaemia; read-out: Growth inhibition (%)
CCRF-CEM = assay: NCI-60 SRB screen; type: cell-based; settings: Homo sapiens, single dose 10^−5 M, Leukaemia, read-out: Growth inhibition (%)
A549/ATCC = assay: NCI-60 SRB screen; type: cell-based, human; settings: Homo sapiens, single dose 10^−5 M, Non-small cell lung carcinoma, read-out: Growth inhibition (%)
MOLT-4 = assay: NCI-60 SRB screen; type: cell-based; settings: Homo sapiens; single dose 10^−5 M; MOLT-4, Leukaemia; read-out: Growth inhibition (%)
HOP-92 = assay: NCI-60 SRB screen; type: cell-based, human; settings: Homo sapiens; single dose 10^−5 M; HOP-92, Non-small cell lung carcinoma; read-out: Growth inhibition (%)
[1] = system: panel of 60 cancer cell lines; assay: NCI-60 SRB screen, mean or range over the panel; type: cell-based, human; settings: Homo sapiens; mean over the cell lines; single dose 10^−5 M; read-out: Mean growth inhibition (%)
EKVX = assay: NCI-60 SRB screen; type: cell-based, human; settings: Homo sapiens, single dose 10^−5 M, Non-small cell lung carcinoma, read-out: Growth inhibition (%)
SF-295 = assay: NCI-60 SRB screen; type: cell-based, human; settings: Homo sapiens; single dose 10^−5 M; SF-295, CNS cancer; read-out: Growth inhibition (%)
UACC-257 = assay: NCI-60 SRB screen; type: cell-based, human; settings: Homo sapiens; single dose 10^−5 M; UACC-257, Melanoma; read-out: Growth inhibition (%)
COLO 205 = assay: NCI-60 SRB screen; type: cell-based, human; settings: Homo sapiens; single dose 10^−5 M; COLO 205, Colon cancer; read-out: Growth inhibition (%)
SW-620 = assay: NCI-60 SRB screen; type: cell-based; settings: Homo sapiens; single dose 10^−5 M; SW-620, Colon cancer; read-out: Growth inhibition (%)
NCI-H322M = assay: NCI-60 SRB screen; type: cell-based, human; settings: Homo sapiens, single dose 10^−5 M, Non-small cell lung carcinoma, read-out: Growth inhibition (%)
NCI-H23 = assay: NCI-60 SRB screen; type: cell-based, human; settings: Homo sapiens; single dose 10^−5 M; NCI-H23, Non-small cell lung carcinoma; read-out: Growth inhibition (%)
NCI-H460 = assay: NCI-60 SRB screen; type: cell-based, human; settings: Homo sapiens; single dose 10^−5 M; NCI-H460, Non-small cell lung carcinoma; read-out: Growth inhibition (%)

N#CC1=C(Nc2ccccc2F)NC(c2cccc([N+](=O)[O-])c2)c2sc3c(F)cccc3c21 (stereo not drawn) [Compound 10, 4-Cyano-8-fluoro-3((2-fluorophenyl)amino)-1–(3-nitrophenyl)-1,2-dihydro[1]benzothieno[2,3-c]pyridine]
inhibition at 10 µM (SK-MEL-2): 0.67% | inhibition at 10 µM (OVCAR-4): -3.9% | inhibition at 10 µM (786-0): -12.3% | inhibition at 10 µM (NCI-H522): -2.13% | inhibition at 10 µM (HT-29): -14.2% | inhibition at 10 µM (KM12): 0.14% | inhibition at 10 µM (MDA-MB-435): -4.45% | inhibition at 10 µM (HCT-15): -5.46% | inhibition at 10 µM (M14): 1.68% | inhibition at 10 µM (SF-268): 4.7% | inhibition at 10 µM (LOX IMVI): 3.26% | inhibition at 10 µM (MALME-3M): -15.1% | inhibition at 10 µM (CAKI-1): 21.1% | inhibition at 10 µM (NCI/ADR-RES): -8.27% | inhibition at 10 µM (UACC-62): 6.75% | inhibition at 10 µM (NCI-H226): 12.8% | inhibition at 10 µM (HCC-2998): -20.3% | inhibition at 10 µM (IGROV1): 16.1% | inhibition at 10 µM (HCT-116): 3.44% | inhibition at 10 µM (TK-10): -55.4% | inhibition at 10 µM (SR): 13% | inhibition at 10 µM (UO-31): 31.2% | inhibition at 10 µM (SK-OV-3): 10.1% | inhibition at 10 µM (SK-MEL-5): -19.6% | inhibition at 10 µM (OVCAR-8): -6.58% | inhibition at 10 µM (SN12C): 0.49% | inhibition at 10 µM (HOP-62): 8.27% | inhibition at 10 µM (HL-60(TB)): -13.1% | inhibition at 10 µM (OVCAR-3): -1.64% | inhibition at 10 µM (ACHN): 9.97% | inhibition at 10 µM (SK-MEL-28): -11% | inhibition at 10 µM (K-562): 2.72% | inhibition at 10 µM (CCRF-CEM): 2.96% | inhibition at 10 µM (A549/ATCC): -7.45% | inhibition at 10 µM (MOLT-4): 6.48% | inhibition at 10 µM (HOP-92): 9.6% | inhibition at 10 µM [1]: -0.095% | inhibition at 10 µM (EKVX): 9.27% | inhibition at 10 µM (SF-295): -4.19% | inhibition at 10 µM (UACC-257): -23.2% | inhibition at 10 µM (COLO 205): -13.3% | inhibition at 10 µM (SW-620): 2.45% | inhibition at 10 µM (NCI-H322M): -0.11% | inhibition at 10 µM (NCI-H23): -1.96% | inhibition at 10 µM (NCI-H460): -1.1%
